This note sets out measurements from US20110038867A1, “REMEDIES FOR PEMPHIGUS CONTAINING ANTI FAS LIGAND ANTIBODIES” (priority 2007, published 2011).

For test [1], the system named is keratinocytes. Put plainly: Pemphigus sera-induced cell detachment (acantholysis) of confluent keratinocytes. Format: cell-based, human. To be noted: pretreatment with Z-IETD-FMK (100 μM for 30 min) or NOK2 15 μg/ml, then sera 72 hrs; FIG. 12B.
The test system of test [2] is keratinocytes. Put plainly: Pemphigus sera-induced Dsg3 cleavage and caspase-8 activation in confluent keratinocytes, Western blotting. Format: cell-based, human. To be noted: pretreatment with Z-IETD-FMK (100 μM for 30 min) or NOK2 15 μg/ml, then sera 72 hrs; FIG. 12A. The protocol: To investigate whether the extrinsic apoptotic pathway is responsible for dsg cleavage, we pretreated confluent keratinocytes with caspase-8 inhibitor Z-IETD-FMK (100 μM for 30 min) or with anti-FasL (NOK2, 15 μg/ml) Ab. Then cells were incubated for 72 hrs with healthy or untreated pemphigus sera. Protein extracts from the culture were analyzed by Western blotting using anti-Dsg3 antibodies and anti-caspase-8 Ab. Vinculin was used as internal control. (FIG. 12A).

For test [3], the system named is human keratinocytes. Description: Pemphigus sera-induced keratinocyte apoptosis, TUNEL staining. Format: cell-based. To be noted: sera pretreated with anti-FasL neutralizing antibody (2.5 mg per ml for 30 min) or Z-IETD-FMK (100 μM for 30 min); FIG. 6. The protocol:
As apoptotic keratinocytes are abundantly expressed in pemphigus, we wanted to explore whether pemphigus sera are capable of inducing apoptosis in normal human keratinocytes. To this purpose, keratinocytes were plated in chamber slides and cultured in serum-free medium (KGM) up to preconfluence. Cells were then cultured in keratinocyte basal medium and treated for 48 h with the addition of 25% serum from either untreated patients or patients treated with systemic corticosteroids. Sera from healthy subjects were used as controls. Apoptosis was evaluated by TUNEL staining in situ. Approximately 100 cells were evaluated, in randomly selected fields, and the percentage of TUNEL-positive cells was counted.
FasL is one of the major triggers of the caspase-8 activated extrinsic apoptotic pathway. Therefore, we wanted to evaluate whether this pathway plays a role in pemphigus apoptosis. To this purpose, patient sera were pretreated with anti-FasL neutralizing antibody or caspase-8 inhibitor, and added to keratinocyte cultures. Keratinocytes were cultured in KGM and treated with pemphigus sera or with sera from untreated patients. Sera were pretreated with anti-FasL neutralizing antibody (2.5 mg per ml for 30 min) or caspase-8 inhibitor Z-IETD-FMK (100 μM for 30 min). Apoptosis was evaluated by TUNEL staining.

The test system of test [4] is keratinocytes. Description: Treatment of keratinocytes with increasing amounts of FasL, Western blotting with anti-Dsg1 and anti-Dsg3. Format: cell-based, human. To be noted: FasL 0.1, 10, 100 ng/ml for 72 hrs; FIG. 9. The protocol: Protein extracts from the culture were analyzed by Western blotting using anti-Dsg1 and anti-Dsg3 antibodies. β-actin was used as internal control. These doses are consistent with the ones detected in pemphigus sera (FIG. 9).
Background: Immunoblotting shows a protein as a band on a membrane.

Peptide text beside a SMILES is read from it. * marks the point of attachment. Cbz = O=C(OCc1ccccc1)*; CH2F = FC*

Consider `CC[C@H](C)[C@H](NC(=O)OCc1ccccc1)C(=O)N[C@@H](CCC(=O)OC)C(=O)N[C@H](C(=O)N[C@@H](CC(=O)OC)C(=O)CF)[C@@H](C)O` [Z-IETD-FMK] (Cbz-IE(OMe)TD(OMe)-CH2F), for which, in test [1], the “cell detachment (i.e. acantholysis) by untreated pemphigus sera” value is “prevented”. In test [2], the “caspase-8 activation by untreated pemphigus sera” value was “prevents both caspase-8 activation and dsg cleavage”; the “dsg cleavage by untreated pemphigus sera” value was “prevents both caspase-8 activation and dsg cleavage”. In addition, the “pemphigus sera-induced keratinocyte apoptosis (TUNEL staining)” value in test [3] was “partially prevented”.

B1: FasL: recombinant Fas ligand added to keratinocyte cultures (protein, UniProt P48023 130-281, looked up)
Tumor necrosis factor ligand …: QIGHPSPPPEKKELRKVAHLTGKSNSRSMPLEWEDTYGIVLLSGVKYKKGGLVINETGLYFVYSKVYFRGQSCNNLPLSHKVYMRNSKYPQDLVMMEGKMMSYCTTGQMWARSSYLGAVFNLTSADHLYVNVSELSLVNFEESQTFFGLYKL
As for B1, the “cleavage of dsgs (Dsg1, Dsg3) by FasL” value in test [4] is listed as “cleaved dsgs in a dose-dependent manner”.
